Here are results for two molecules from US12569502B2, “Use of bile acids and derivatives thereof in preparation of GPR39 agonist” (PEKING UNIVERSITY, priority 2019, dated 2026).

Like-named read-outs stand apart in the source and are kept apart here.

The target in experiment [1] is T1, human GPR39 receptors on human GPR39-2 cell lines (Homo sapiens, UniProt O43194).
T1 construct: P2A-mCherry (C)
T1 sequence (O43194 1-453): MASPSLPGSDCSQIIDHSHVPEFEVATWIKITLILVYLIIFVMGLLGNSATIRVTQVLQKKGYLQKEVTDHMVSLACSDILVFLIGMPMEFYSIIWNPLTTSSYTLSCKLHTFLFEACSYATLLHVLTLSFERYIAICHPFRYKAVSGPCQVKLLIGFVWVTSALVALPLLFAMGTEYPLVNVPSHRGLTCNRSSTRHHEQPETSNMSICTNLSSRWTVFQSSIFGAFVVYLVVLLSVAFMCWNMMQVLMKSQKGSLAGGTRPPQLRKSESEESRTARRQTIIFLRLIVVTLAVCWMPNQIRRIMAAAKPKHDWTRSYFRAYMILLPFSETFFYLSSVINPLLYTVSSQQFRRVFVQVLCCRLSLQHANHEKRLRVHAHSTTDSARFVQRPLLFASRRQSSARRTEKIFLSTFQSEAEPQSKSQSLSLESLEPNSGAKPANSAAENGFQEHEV
The experiment is described as follows: FLIPR calcium imaging on human GPR39-2 cell line stably expressing human GPR39. It is filed as cell-based. The conditions noted are these: for EC50: human GPR39-2 cells. From the text: The human GPR39 cDNA vector was purchased from WZ Biosciences Inc., Shandong. It was cloned onto a lentiviral vector PLVXK-hGPR39-P2A-mCherry (FIG. 10) through PCR amplification using primers hGPR39-F (which sequence was shown as set forth in SEQshown as set forth in SEQ ID NO: 15) and hGPR39-R (which sequence was shown as set forth in SEQ shown as set forth in SEQ ID NO: 16), in which the sequence of the target gene human GPR39 cDNA was shown as set forth in SEQ shown as set forth in SEQ ID NO: 14. A cell line human GPR39-2 stably expressing human GPR39 gene was constructed according to the method of Example 1.

Experiment [2] concerns the target T2, GPR39 receptors on m39-20 cell lines (Mus musculus, UniProt Q5U431, T447P).
T2 construct: P2A-mCherry (C); expressed in transfected cells
T2 sequence (Q5U431 1-456 T447P): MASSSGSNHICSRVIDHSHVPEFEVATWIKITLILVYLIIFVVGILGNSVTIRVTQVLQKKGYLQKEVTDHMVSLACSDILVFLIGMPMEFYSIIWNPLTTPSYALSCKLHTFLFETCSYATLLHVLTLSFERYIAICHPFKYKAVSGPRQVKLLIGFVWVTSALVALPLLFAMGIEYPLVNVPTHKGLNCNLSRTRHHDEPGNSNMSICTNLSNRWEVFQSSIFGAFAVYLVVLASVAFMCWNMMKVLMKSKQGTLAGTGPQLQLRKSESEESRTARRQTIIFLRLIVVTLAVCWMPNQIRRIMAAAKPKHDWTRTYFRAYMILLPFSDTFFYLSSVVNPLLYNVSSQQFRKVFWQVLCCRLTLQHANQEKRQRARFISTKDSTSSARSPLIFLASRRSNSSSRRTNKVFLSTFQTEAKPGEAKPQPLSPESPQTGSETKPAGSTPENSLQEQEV
The experiment is described as follows: FLIPR calcium imaging on m39-20 cell lines stably expressing murine-derived GPR39. The format is cell-based. Particulars: for intracellular calcium signals in m39-20 cell lines: FIG. 1. From the text:
Intracellular calcium imaging is a routine technique to study cell functions, the basic principle of which is to detect the concentration of the calcium ion in tissues or cells using a calcium indicator, thereby reflecting certain reactions in the tissues or cells. In the present application, the intracellular calcium released from a cell line that stably or transiently expresses GPR39 is detected using Fluo8-AM, a calcium fluorescent indicator, so as to determine the activation of the GPR39 receptor by the bile acid and derivative thereof.
HEK293T cells (purchased from ATCC) were seeded in a 6-well plate (coming Co.) at an appropriate density (about 0.5-2×10^5/well). When the cell density reached above 30%, the plasmid PLVXK-mGPR39-P2A-mCherry was transfected with Lipofectamine 3000 (Invitrogen) at a concentration of 2 μg per well. The cells were passaged 24 hours after transfection, the puromycin (gibco) was added into the medium at a concentration of 2 μg/mL for antibiotic screening of cells. After 2-4 days of continuous screening, the cells screened for puromycin resistance were trypsinized and screened by flow cytometry for monoclones with red fluorescence. And these monoclones were seeded in a 96-well plate and cultured in a medium without puromycin for around 10 days. Cell colonies with red fluorescence were sorted under a fluorescence microscope, trypsinized and then passaged and expanded in a 6-well plate. Cell lines m39-20 stably expressing murine-derived GPR39 were obtained through the above methods.
Calcium dye Fluo8-AM (ATT bioquest Co.) was dissolved in DMSO solvent to formulate a stock solution of 1 μg/μL. […] After then, the calcium dye working solution was replaced with the 4K solution (50 μL per well), and acclimated for 5 min at room temperature for the subsequent calcium imaging experiment.
Bile acids and derivatives thereof as listed in Table 1 below were dissolved in dimethyl sulfoxide (DMSO, Sigma Co.) solvent to formulate a stock solution of 50 mM, which was stored at −20° C. During calcium imaging with FLIPR, the drug was diluted with the above 4K solution into a working concentration of 400 μM, and packaged into another 96-well plate. […] The instrument parameters were set so that 50 μL of the drug solution may be added into the culture wells within 2 s. The fluorescence recording result within the first 30 seconds was used as the baseline value. The FLIPR robot arm was programmed to automatically add bile acids and derivatives thereof into the cell sample culture wells at the 31st second. 1% of DMSO solvent was used as the blank control.
After that, the calcium dye working solution was replaced with a 4K solution containing 4 μM zinc ions (50 μL per well), followed by acclimation for 5 min at room temperature.
On the technique in general: Calcium assays in cells follow changes in intracellular calcium, usually with a dye or a luminescent sensor.

`C[C@H](CCC(=O)O)[C@H]1CC[C@H]2[C@@H]3CC[C@@H]4C[C@H](OS(=O)(=O)O)CC[C@]4(C)[C@H]3CC[C@]12C` [LCAS]: the EC50 (in general, the concentration needed to bring the measured effect to its halfway point) in experiment [1] (EC50 Agonist + 4 μM zinc ions, 4 μM zinc ions) was found to be 0.97 ± 0.3 µM; in experiment [2] (Bile acid + 4 μM zinc ions EC50, m39-20 cells, 4 μM zinc ions) it was 0.88 ± 0.16 µM; in experiment [2] (m39-20 cells, no zinc ions, read-out: Only bile acid EC50), 41 ± 4.5 µM; in experiment [2] (m39-20 cells, zinc ions 0 μM, read-out: EC50), 31 ± 2.1 µM; in experiment [2] (m39-20 cells, zinc ions 0.05 μM, read-out: EC50) it was 30.7 ± 2.4 µM; in experiment [2] (m39-20 cells, zinc ions 0.1 μM, read-out: EC50), 30.6 ± 2 µM. In addition, the half-maximal effective concentration (EC50) in experiment [2] (m39-20 cells, zinc ions 0.2 μM, read-out: EC50) was determined as 25.4 ± 1.1 µM; in experiment [2] (m39-20 cells, zinc ions 0.4 μM, read-out: EC50), 20.1 ± 0.67 µM; in experiment [2] (m39-20 cells, zinc ions 1 μM, read-out: EC50) it was 6.4 ± 0.67 µM; in experiment [2] (m39-20 cells, zinc ions 2 μM, read-out: EC50) it was 1.9 ± 0.03 µM; in experiment [2] (m39-20 cells, zinc ions 4 μM, read-out: EC50), 0.7 ± 0.03 µM. In addition, the “intracellular calcium signal response of human GPR39-2” value in experiment [1] (FIG. 9) is reported as “capable of inducing intracellular calcium signal response”. In addition, the “intracellular calcium signals in m39-20 cell lines” value in experiment [2] was “varying extents of intracellular calcium signals”. The “intracellular calcium signaling response in m39-20 cells” value in experiment [2] (absence of zinc ions) is listed as “strong intracellular calcium signaling response”. For the same molecule, the “Only bile acid Efficacy” value in experiment [2] (activation efficacy, m39-20 cells, no zinc ions) is listed as 111.1 ± 3.9%. Besides, the “change of activation efficacy after the addition of zinc ions” value in experiment [2] (m39-20 cells, Table 1, FIG. 2) is “increases slightly”. Moreover, the “activation capacity on GPR39 receptors among the bile acids” value in experiment [2] (m39-20 cells, dose curves) was “strongest activation capacity”.

Take `[Zn+2]` [Zinc ions, reference compound]: the half-maximal effective concentration (EC50) in experiment [1] (no added zinc ions, read-out: EC50 Only agonist) was 12 ± 2.8 µM. Further, in experiment [2], the “intracellular calcium signals in m39-20 cell lines” value is “inducing intracellular calcium signals”.
